How the values were obtained:
[1] = biological target: T1, bradykinin 1 receptor (B1R) of the rat (Rattus norvegicus, UniProt P97583); assay: Functional investigation on the rat bradykinin 1 receptor (B1R), Ca2+ FLIPR assay in CHO K1 rB1R cells; assay type: cell-based; settings: CHO-K1, B1R antagonism rat; test substance 10 μM; Ca2+ FLIPR, CHO K1 rB1R cells; read-out: B1R Ant. r [10 μM] % Inhibition
T1 construct: expressed in transfected cells; host or cells: CHO K1 cells
T1 sequence (P97583 1-337): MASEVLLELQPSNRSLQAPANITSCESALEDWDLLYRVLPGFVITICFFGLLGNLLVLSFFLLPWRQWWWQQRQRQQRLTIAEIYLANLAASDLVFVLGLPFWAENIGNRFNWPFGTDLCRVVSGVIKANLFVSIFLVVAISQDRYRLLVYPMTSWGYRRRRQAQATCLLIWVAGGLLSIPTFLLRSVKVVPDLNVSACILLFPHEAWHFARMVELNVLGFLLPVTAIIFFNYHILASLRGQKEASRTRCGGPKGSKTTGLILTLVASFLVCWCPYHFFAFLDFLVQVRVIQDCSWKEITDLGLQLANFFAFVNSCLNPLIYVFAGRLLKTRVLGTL
In short: (§1)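 Cells were dye-loaded with Fluo-4 plus probenecid, then test substances added and Ca2+ influx compared with agonist control for % activation. After 10-20 min, EC80 agonist (Lys-Des-Arg9-bradykinin human; Des-Arg9-bradykinin rat) was applied; suppression gave % inhibition and IC50 values.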

[2] = biological target: T2, human bradykinin 1 receptor (B1R) (Homo sapiens, UniProt P46663); assay: Functional investigation on the human bradykinin 1 receptor (B1R), Ca2+ FLIPR assay in CHO K1 hB1R cells; assay type: cell-based; settings: CHO-K1, B1R antagonism human; test substance 10 μM; Ca2+ FLIPR, CHO K1 hB1R cells; read-out: B1R Ant. h [10 μM] % Inhibition
T2 construct: expressed in transfected cells; host or cells: CHO K1 cells
T2 sequence (P46663 1-353): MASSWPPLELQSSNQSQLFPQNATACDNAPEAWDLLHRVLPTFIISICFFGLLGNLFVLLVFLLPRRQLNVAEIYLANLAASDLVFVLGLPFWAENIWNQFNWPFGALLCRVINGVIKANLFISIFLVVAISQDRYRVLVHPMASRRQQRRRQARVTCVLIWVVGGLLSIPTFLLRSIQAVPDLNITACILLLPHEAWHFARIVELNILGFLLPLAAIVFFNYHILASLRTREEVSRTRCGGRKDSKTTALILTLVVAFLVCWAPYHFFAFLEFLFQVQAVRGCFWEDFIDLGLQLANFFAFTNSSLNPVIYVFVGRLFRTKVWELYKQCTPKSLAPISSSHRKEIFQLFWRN
In short: as §1

[3] = biological target: T3, human μ opiate receptor (Homo sapiens, UniProt P35372); assay: Affinity for the human μ opiate receptor ([3H]-naloxone displacement, CHO-K1 receptor membrane preparation, SPA); assay type: binding; settings: 1.5 h, Table 3, to be read in the same way as Table 1; test concentration 1 μM; read-out: μ
T3 construct: purchased PerkinElmer Life Sciences, Zaventem, Belgium RB-HOM; host or cells: CHO-K1 cells (membrane preparation)
In short: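 Scintillation proximity binding on human μ receptor membranes from CHO-K1 cells used 1 nmol/l [3H]-naloxone over 90 min at room temperature in 50 mmol/l Tris-HCl, 0.06% BSA. Percent inhibition was recorded at 1 μM.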

T3 sequence (P35372 whole entry): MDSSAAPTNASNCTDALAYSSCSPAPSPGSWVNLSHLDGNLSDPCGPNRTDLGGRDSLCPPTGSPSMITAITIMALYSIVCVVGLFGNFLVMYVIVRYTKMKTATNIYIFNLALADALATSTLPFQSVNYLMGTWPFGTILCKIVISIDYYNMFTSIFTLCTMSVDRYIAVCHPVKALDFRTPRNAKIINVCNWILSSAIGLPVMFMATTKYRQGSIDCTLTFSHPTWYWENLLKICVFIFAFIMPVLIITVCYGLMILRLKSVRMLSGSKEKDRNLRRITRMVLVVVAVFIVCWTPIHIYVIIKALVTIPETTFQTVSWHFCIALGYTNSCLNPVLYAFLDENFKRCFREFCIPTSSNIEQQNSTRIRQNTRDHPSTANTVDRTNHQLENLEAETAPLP

What does the source list for `COc1cc(C)c(S(=O)(=O)N2CCCC(OCC(=O)NCC3CCC(C(CCc4ccccc4)N4CCOCC4)CC3)C2)c(C)c1` (stereo not drawn) [Example 748, 2-(1-(4-methoxy-2,6-dimethylphenylsulfonyl)piperidin-3-yloxy)-N-((4-(1-morpholino-3-phenylpropyl)cyclohexyl)methyl)acetamide]?
inhibition at 10 µM [1]: 78%; inhibition at 10 µM [2]: 92%; inhibition at 1 µM [3]: 20%

How did the inhibition at 10 µM [1] turn out when `COc1cc(C)c(S(=O)(=O)N2CCCC2COCC(=O)NCC2CCC(C(CCc3ccccc3)N3CCOCC3)CC2)c(C)c1` (stereo not drawn) [Example 749, 2-((1-(4-methoxy-2,6-dimethylphenylsulfonyl)pyrrolidin-2-yl)methoxy)-N-((4-(1-morpholino-3-phenylpropyl)cyclohexyl)methyl)acetamide] was run?
The inhibition at 10 µM was 109%.

And the inhibition at 10 µM [2]?
The inhibition at 10 µM was 103%.

And the inhibition at 1 µM [3]?
The inhibition at 1 µM was 12%.

With `COc1cc(C)c(S(=O)(=O)N2CCCC2COCC(=O)NCC2CCC(C(CCc3ccccc3)N3CCCC3)CC2)c(C)c1` (stereo not drawn) [Example 750, 2-((1-(4-methoxy-2,6-dimethylphenylsulfonyl)pyrrolidin-2-yl)methoxy)-N-((4-(3-phenyl-1-(pyrrolidin-1-yl)propyl)cyclohexyl)methyl)acetamide] as the compound, how does the inhibition at 10 µM [1] read?
The inhibition at 10 µM was 94%.

And the inhibition at 10 µM [2]?
The inhibition at 10 µM was 101%.

And the inhibition at 1 µM [3]?
The inhibition at 1 µM was 52%.

How did the inhibition at 10 µM [1] turn out when `O=C(COCC1CCCN1S(=O)(=O)c1c(Cl)cc(Cl)cc1Cl)NCC1CCC(C(CCc2ccccc2)N2CCOCC2)CC1` (stereo not drawn) [Example 751, N-((4-(1-morpholino-3-phenylpropyl)cyclohexyl)methyl)-2-((1-(2,4,6-trichlorophenylsulfonyl)pyrrolidin-2-yl)methoxy)acetamide] was run?
Its inhibition at 10 µM is 73%.

What about the inhibition at 10 µM [2] of the same compound?
Its inhibition at 10 µM is 45%.

What about the inhibition at 1 µM [3] of the same compound?
The inhibition at 1 µM was 32%.

`O=C(COCC1CCCN1S(=O)(=O)c1c(Cl)cc(Cl)cc1Cl)NCC1CCC(C(CCc2ccccc2)N2CCCC2)CC1` (stereo not drawn) [Example 752, N-((4-(3-phenyl-1-(pyrrolidin-1-yl)propyl)cyclohexyl)methyl)-2-((1-(2,4,6-trichlorophenylsulfonyl)pyrrolidin-2-yl)methoxy)acetamide] was tested. Which inhibition at 10 µM [1] did it give?
The inhibition at 10 µM was 104%.

And the inhibition at 10 µM [2]?
Its inhibition at 10 µM is 103%.

And the inhibition at 1 µM [3]?
Its inhibition at 1 µM is 82%.

Which inhibition at 10 µM [1] does the source give for `COc1cc(C)c(S(=O)(=O)N2CCCCC2COCC(=O)NCC2CCC(C(CCc3ccccc3)N3CCOCC3)CC2)c(C)c1` (stereo not drawn) [Example 753, 2-((1-(4-methoxy-2,6-dimethylphenylsulfonyl)piperidin-2-yl)methoxy)-N-((4-(1-morpholino-3-phenylpropyl)cyclohexyl)methyl)acetamide] here?
The inhibition at 10 µM was 103%.

What about the inhibition at 10 µM [2] of the same compound?
Its inhibition at 10 µM is 104%.

What about the inhibition at 1 µM [3] of the same compound?
The inhibition at 1 µM was 17%.

Which results are given for `O=C(COCC1CCCCN1S(=O)(=O)c1c(Cl)cc(Cl)cc1Cl)NCC1CCC(C(CCc2ccccc2)N2CCOCC2)CC1` (stereo not drawn) [Example 754, N-((4-(1-morpholino-3-phenylpropyl)cyclohexyl)methyl)-2-((1-(2,4,6-trichlorophenylsulfonyl)piperidin-2-yl)methoxy)acetamide]?
inhibition at 10 µM [1]: 76%; inhibition at 10 µM [2]: 47%; inhibition at 1 µM [3]: 2%

What does the source list for `O=C(COCC1CCCCN1S(=O)(=O)c1c(Cl)cc(Cl)cc1Cl)NCC1CCC(C(CCc2ccccc2)N2CCCC2)CC1` (stereo not drawn) [Example 755, N-((4-(3-phenyl-1-(pyrrolidin-1-yl)propyl)cyclohexyl)methyl)-2-((1-(2,4,6-trichlorophenylsulfonyl)piperidin-2-yl)methoxy)acetamide]?
inhibition at 10 µM [1]: 102%; inhibition at 10 µM [2]: 103%; inhibition at 1 µM [3]: 62%

With `COc1cc(C)c(S(=O)(=O)N2CCCC(COCC(=O)NCC3CCC(C(CCc4ccccc4)N4CCOCC4)CC3)C2)c(C)c1` (stereo not drawn) [Example 756, 2-((1-(4-methoxy-2,6-dimethylphenylsulfonyl)piperidin-3-yl)methoxy)-N-((4-(1-morpholino-3-phenylpropyl)cyclohexyl)methyl)acetamide] as the compound, how does the inhibition at 10 µM [1] read?
Its inhibition at 10 µM is 43%.

And the inhibition at 10 µM [2]?
The inhibition at 10 µM was 64%.

And the inhibition at 1 µM [3]?
The inhibition at 1 µM was 5%.

From patent US8106055B2, “Substituted amide compounds” (Gruenenthal GmbH, priority 2007, dated 2012)
